Values joined by “and” are separate entries in the source; they are usually repeats but may differ in a detail not shown here. Equal values may be shown once. Read-outs that look alike come from different tables or passages of the source. Numbered stars: 1 amine (or outer) side, 2 acyl side, 3 side chain; on linkers, the order of the positions; unused ones are H or OH. Bridge positions count the residues as written; N and C are the ends. Square brackets hold non-standard residues; d marks the D form. Peptide text beside a SMILES is read from it. * marks the point of attachment. X11 = O=C([C@H](Cc1c[nH]c2cc(C/C=C/c3ccccc3)ccc12)N[*:1])[*:2]; X10 = C=C(C)/C=C/C(C)n1cc(C[C@H](N[*:1])C(=O)[*:2])c2ccccc21; X12 = C=C(C)/C=C/Cc1[nH]c2ccccc2c1C[C@H](N[*:1])C(=O)[*:2]; X8 = C=CC1(n2cc(C[C@H](N[*:1])C(=O)[*:2])c3ccccc32)CCCCC1; X2 = O=C([C@H](Cc1cn(CC=C2CCCCC2)c2ccccc12)N[*:1])[*:2]; X6 = CC/C(C)=C/Cn1cc(C[C@H](N[*:1])C(=O)[*:2])c2ccccc21; X4 = CCC(=CCn1cc(C[C@H](N[*:1])C(=O)[*:2])c2ccccc21)CC; X7 = O=C([C@H](Cc1cn(CC2=CCCCC2)c2ccccc12)N[*:1])[*:2]; X9 = CC(C)=CCn1cc(C[C@H](N[*:1])C(=O)[*:2])c2ccccc21; Glu(3R-Me) = C[C@H](CC(=O)O)[C@H](N)C(=O)O; Kyn = Nc1ccccc1C(=O)C[C@H](N)C(=O)O; Decanoyl = CCCCCCCCCC(=O)*; Orn = NCCC[C@H](N)C(=O)O
What was measured:
S. aureus (hVISA, SR220) = conditions: DapS, VISA, BEI NR-50512; MIC90, broth microdilution, MHB + 50 mg L^−1 calcium, 35 °C, 22 h, A600, triplicate
E. faecalis (S613) = conditions: DapS, BEI HM-334, MIC90, broth microdilution, MHB + 50 mg L^−1 calcium, 35 °C, 22 h, A600, triplicate
E. faecalis (R712) = conditions: DapR, BEI HM-335; MIC90, broth microdilution, MHB + 50 mg L^−1 calcium, 35 °C, 22 h, A600, triplicate
[1] = tested on: S. aureus (SAUSA300_1713 NE573); conditions: DapR, strain JE2 transposon mutant NE573, BEI NR-47116; MIC90, broth microdilution, MHB + 50 mg L^−1 calcium, 35 °C, 22 h, A600, triplicate
[2] = tested on: S. aureus (SAUSA300_1715 NE1656); conditions: DapR, strain JE2 transposon mutant NE1656, BEI NR-48198; MIC90, broth microdilution, MHB + 50 mg L^−1 calcium, 35 °C, 22 h, A600, triplicate
[3] = tested on: E. faecalis (hVRE, ATCC 700802); conditions: vancomycin-resistant Enterococcus; Table 1, Fig. S1
S. aureus (ATCC 25923) = conditions: DapS strain; MIC90, broth microdilution, MHB + 50 mg L^−1 calcium, inoculum 1×10^5–5×10^5 CFU/mL, 35 °C, 22 h, A600, triplicate; converted from μM

`CCCCCCCCCC(=O)N[C@@H](Cc1c[nH]c2ccccc12)C(=O)N[C@H](CC(N)=O)C(=O)N[C@@H](CC(=O)O)C(=O)N[C@@H]1C(=O)NCC(=O)N[C@@H](CCCN)C(=O)N[C@@H](CC(=O)O)C(=O)N[C@H](C)C(=O)N[C@@H](CC(=O)O)C(=O)NCC(=O)N[C@H](CO)C(=O)N[C@@H]([C@H](C)CC(=O)O)C(=O)N[C@@H](CC(=O)c2ccccc2N)C(=O)O[C@@H]1C` [DAP, Daptomycin] was tested, and the MIC (S. aureus (hVISA, SR220)) was 4.0 µg/mL, the MIC (E. faecalis (S613)) was 16.2 µg/mL and the MIC (E. faecalis (S613); listed as Dap) was ~ 16 μg mL^−1. For the same compound, the MIC (E. faecalis (R712)) was greater than 32.4 µg/mL, the MIC [1] was 16.2 µg/mL and the MIC [2] was 16.2 µg/mL.
Compound `CCCCCCCCCC(=O)N[C@@H](Cc1cn(CC=C(C)C)c2ccccc12)C(=O)N[C@H](CC(N)=O)C(=O)N[C@@H](CC(=O)O)C(=O)N[C@@H]1C(=O)NCC(=O)N[C@@H](CCCN)C(=O)N[C@@H](CC(=O)O)C(=O)N[C@H](C)C(=O)N[C@@H](CC(=O)O)C(=O)NCC(=O)N[C@H](CO)C(=O)N[C@@H]([C@H](C)CC(=O)O)C(=O)N[C@@H](CC(=O)c2ccccc2N)C(=O)O[C@@H]1C` [compound 40, N1-Trp-prenyl-Dap] (Decanoyl-[X9][dN]DTG[Orn]D[dA]DG[dS][Glu(3R-Me)][Kyn]; ester 4-C) has an MIC (S. aureus (hVISA, SR220)) of 0.5 µg/mL and an MIC (E. faecalis (R712)) of 33.7 µg/mL.
In the case of `CCCCCCCCCC(=O)N[C@@H](Cc1cn(C/C=C(\C)CC)c2ccccc12)C(=O)N[C@H](CC(N)=O)C(=O)N[C@@H](CC(=O)O)C(=O)N[C@@H]1C(=O)NCC(=O)N[C@@H](CCCN)C(=O)N[C@@H](CC(=O)O)C(=O)N[C@H](C)C(=O)N[C@@H](CC(=O)O)C(=O)NCC(=O)N[C@H](CO)C(=O)N[C@@H]([C@H](C)CC(=O)O)C(=O)N[C@@H](CC(=O)c2ccccc2N)C(=O)O[C@@H]1C` [compound 42, N1-6-Dap] (Decanoyl-[X6][dN]DTG[Orn]D[dA]DG[dS][Glu(3R-Me)][Kyn]; ester 4-C), the “fold enhanced activity (compared with Dap)” value [3] is reported as 5–15 fold, the MIC (S. aureus (hVISA, SR220)) is reported as 0.5 µg/mL and the MIC (E. faecalis (S613)) is reported as 1.1 µg/mL. The MIC (E. faecalis (R712)) was 17.0 µg/mL.
For `CCCCCCCCCC(=O)N[C@@H](Cc1cn(CC=C(CC)CC)c2ccccc12)C(=O)N[C@H](CC(N)=O)C(=O)N[C@@H](CC(=O)O)C(=O)N[C@@H]1C(=O)NCC(=O)N[C@@H](CCCN)C(=O)N[C@@H](CC(=O)O)C(=O)N[C@H](C)C(=O)N[C@@H](CC(=O)O)C(=O)NCC(=O)N[C@H](CO)C(=O)N[C@@H]([C@H](C)CC(=O)O)C(=O)N[C@@H](CC(=O)c2ccccc2N)C(=O)O[C@@H]1C` [compound 44, N1-7-Dap] (Decanoyl-[X4][dN]DTG[Orn]D[dA]DG[dS][Glu(3R-Me)][Kyn]; ester 4-C), the MIC (S. aureus (hVISA, SR220)) was 0.5 µg/mL, the MIC (E. faecalis (S613)) was 0.3 to 0.6 µg/mL and 0.5 µg/mL and the MIC (E. faecalis (R712)) was 4.3 µg/mL. The MIC [2] was 0.5 µg/mL.
`C=C(C)/C=C/Cc1[nH]c2ccccc2c1C[C@H](NC(=O)CCCCCCCCC)C(=O)N[C@H](CC(N)=O)C(=O)N[C@@H](CC(=O)O)C(=O)N[C@@H]1C(=O)NCC(=O)N[C@@H](CCCN)C(=O)N[C@@H](CC(=O)O)C(=O)N[C@H](C)C(=O)N[C@@H](CC(=O)O)C(=O)NCC(=O)N[C@H](CO)C(=O)N[C@@H]([C@H](C)CC(=O)O)C(=O)N[C@@H](CC(=O)c2ccccc2N)C(=O)O[C@@H]1C` [compound 46, C2R-16-Dap] (Decanoyl-[X12][dN]DTG[Orn]D[dA]DG[dS][Glu(3R-Me)][Kyn]; ester 4-C) gave an MIC (S. aureus (hVISA, SR220)) of 17.0 µg/mL.
`C=C(C)/C=C/C(C)n1cc(C[C@H](NC(=O)CCCCCCCCC)C(=O)N[C@H](CC(N)=O)C(=O)N[C@@H](CC(=O)O)C(=O)N[C@@H]2C(=O)NCC(=O)N[C@@H](CCCN)C(=O)N[C@@H](CC(=O)O)C(=O)N[C@H](C)C(=O)N[C@@H](CC(=O)O)C(=O)NCC(=O)N[C@H](CO)C(=O)N[C@@H]([C@H](C)CC(=O)O)C(=O)N[C@@H](CC(=O)c3ccccc3N)C(=O)O[C@@H]2C)c2ccccc21` (stereo partly drawn) [compound 48, N1R-18-Dap] (Decanoyl-[X10][dN]DTG[Orn]D[dA]DG[dS][Glu(3R-Me)][Kyn]; ester 4-C) showed an MIC (S. aureus (ATCC 25923)) of 17.1 µg/mL and an MIC (E. faecalis (R712)) of 17.1 µg/mL.
`C=CC1(n2cc(C[C@H](NC(=O)CCCCCCCCC)C(=O)N[C@H](CC(N)=O)C(=O)N[C@@H](CC(=O)O)C(=O)N[C@@H]3C(=O)NCC(=O)N[C@@H](CCCN)C(=O)N[C@@H](CC(=O)O)C(=O)N[C@H](C)C(=O)N[C@@H](CC(=O)O)C(=O)NCC(=O)N[C@H](CO)C(=O)N[C@@H]([C@H](C)CC(=O)O)C(=O)N[C@@H](CC(=O)c4ccccc4N)C(=O)O[C@@H]3C)c3ccccc32)CCCCC1` [compound 50, N1R-19-Dap] (Decanoyl-[X8][dN]DTG[Orn]D[dA]DG[dS][Glu(3R-Me)][Kyn]; ester 4-C) showed an MIC (E. faecalis (R712)) of 17.3 µg/mL.
With `CCCCCCCCCC(=O)N[C@@H](Cc1cn(CC=C2CCCCC2)c2ccccc12)C(=O)N[C@H](CC(N)=O)C(=O)N[C@@H](CC(=O)O)C(=O)N[C@@H]1C(=O)NCC(=O)N[C@@H](CCCN)C(=O)N[C@@H](CC(=O)O)C(=O)N[C@H](C)C(=O)N[C@@H](CC(=O)O)C(=O)NCC(=O)N[C@H](CO)C(=O)N[C@@H]([C@H](C)CC(=O)O)C(=O)N[C@@H](CC(=O)c2ccccc2N)C(=O)O[C@@H]1C` [compound 51, N1-19-Dap] (Decanoyl-[X2][dN]DTG[Orn]D[dA]DG[dS][Glu(3R-Me)][Kyn]; ester 4-C) the “fold enhanced activity (compared with Dap)” value [3] was 5–15 fold, the MIC (S. aureus (hVISA, SR220)) was 1.1 µg/mL and the MIC (E. faecalis (S613)) was 1.3 µg/mL. For the same compound, the MIC (E. faecalis (R712)) was 5.2 µg/mL, the MIC [1] was 1.3 µg/mL and the MIC [2] was 2.6 µg/mL.
With `CCCCCCCCCC(=O)N[C@@H](Cc1cn(CC2=CCCCC2)c2ccccc12)C(=O)N[C@H](CC(N)=O)C(=O)N[C@@H](CC(=O)O)C(=O)N[C@@H]1C(=O)NCC(=O)N[C@@H](CCCN)C(=O)N[C@@H](CC(=O)O)C(=O)N[C@H](C)C(=O)N[C@@H](CC(=O)O)C(=O)NCC(=O)N[C@H](CO)C(=O)N[C@@H]([C@H](C)CC(=O)O)C(=O)N[C@@H](CC(=O)c2ccccc2N)C(=O)O[C@@H]1C` [compound 53, N1-20-Dap] (Decanoyl-[X7][dN]DTG[Orn]D[dA]DG[dS][Glu(3R-Me)][Kyn]; ester 4-C) the MIC (E. faecalis (S613)) was 17.1 µg/mL, the MIC (E. faecalis (R712)) was greater than 17.1 µg/mL and the MIC [1] was 17.1 µg/mL. The MIC [2] was 17.1 µg/mL.
`CCCCCCCCCC(=O)N[C@@H](Cc1c[nH]c2cc(C/C=C/c3ccccc3)ccc12)C(=O)N[C@H](CC(N)=O)C(=O)N[C@@H](CC(=O)O)C(=O)N[C@@H]1C(=O)NCC(=O)N[C@@H](CCCN)C(=O)N[C@@H](CC(=O)O)C(=O)N[C@H](C)C(=O)N[C@@H](CC(=O)O)C(=O)NCC(=O)N[C@H](CO)C(=O)N[C@@H]([C@H](C)CC(=O)O)C(=O)N[C@@H](CC(=O)c2ccccc2N)C(=O)O[C@@H]1C` [compound 54, C6-22-Dap] (Decanoyl-[X11][dN]DTG[Orn]D[dA]DG[dS][Glu(3R-Me)][Kyn]; ester 4-C) gave an MIC (E. faecalis (R712)) of 8.7 µg/mL.
